Measurements taken from patent US12667572B2, “Tricyclic compounds useful in the treatment of cancer, autoimmune and inflammatory disorders” (SCHRÖDINGER, INC., priority 2021, dated 2026).

Target: T1, full-length MALT1 protein His-MALT1(1-824) (Homo sapiens, UniProt Q9UDY8)
T1 construct: full-length MALT1 protein His-MALT1(1-824); His (N); made in house; host or cells: baculovirus-infected insect cells
T1 sequence (Q9UDY8 1-824): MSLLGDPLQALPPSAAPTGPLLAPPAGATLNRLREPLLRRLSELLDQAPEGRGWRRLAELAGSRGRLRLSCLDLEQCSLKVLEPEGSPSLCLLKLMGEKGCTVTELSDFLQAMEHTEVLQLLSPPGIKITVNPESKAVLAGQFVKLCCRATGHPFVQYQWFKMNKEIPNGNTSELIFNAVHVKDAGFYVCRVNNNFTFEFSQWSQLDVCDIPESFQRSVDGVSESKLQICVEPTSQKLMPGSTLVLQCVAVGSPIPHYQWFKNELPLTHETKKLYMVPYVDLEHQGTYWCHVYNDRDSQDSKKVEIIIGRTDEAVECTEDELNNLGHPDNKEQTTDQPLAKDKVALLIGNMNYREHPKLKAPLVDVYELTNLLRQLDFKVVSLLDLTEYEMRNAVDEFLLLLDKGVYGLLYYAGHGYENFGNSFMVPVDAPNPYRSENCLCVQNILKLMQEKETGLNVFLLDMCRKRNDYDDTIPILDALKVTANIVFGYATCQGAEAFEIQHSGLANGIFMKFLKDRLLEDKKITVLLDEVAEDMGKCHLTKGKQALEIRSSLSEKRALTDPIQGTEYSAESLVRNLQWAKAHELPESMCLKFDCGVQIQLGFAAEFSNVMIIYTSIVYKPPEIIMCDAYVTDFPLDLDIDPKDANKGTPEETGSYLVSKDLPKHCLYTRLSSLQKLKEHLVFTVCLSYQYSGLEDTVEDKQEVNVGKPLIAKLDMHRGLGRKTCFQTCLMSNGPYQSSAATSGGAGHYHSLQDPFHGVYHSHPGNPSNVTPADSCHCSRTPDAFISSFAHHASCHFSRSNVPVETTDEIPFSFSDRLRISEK
Experiment: MALT1 protease assay, Assay 2 (1 nM MALT1, Ac-LRSR-AMC substrate)
Assay type: biochemical
Conditions: 1 nM MALT1, 50 μM Ac-LRSR-AMC, 2 h pre-incubation, 8 hr incubation at RT
Procedure: MALT1 protease activity was assessed in an in vitro assay using a tetrapeptide as substrate and full-length MALT1 protein His-MALT1(1-824) purified from baculovirus-infected insect cells. The tetrapeptide substrate is Ac-LRSR-AMC (SM Biochemicals) with Km measured at around 100 μM.
The final assay buffer includes 1 nM (Assay 2) or 2 nM (Assay 1) of MALT1 full-length protein, 50 μM Ac-LRSR-AMC substrate, 50 mM Tris pH 7.5, 600 mM Sodium Citrate, 1 mM DTT, 1 mM EDTA, and 0.05% BSA in 384-well plate format using black microtiter square well plates (Optiplate 384-F, Perkin Elmer).
Test compounds were dissolved in 100% DMSO at stock of 10 mM, with final DMSO concentration 0.1%. Test compounds were pre-incubated with MALT1 protein for 2 h at room temperature. Substrate was added after the pre-incubation and fluorescence signal was measured using Envision at excitation 355 nm and emission 460 nm after 8 hr incubation at RT. Increase in the assay signal was linear over this period and proportional with increase in the enzyme content.
The fluorescence units were transformed to percentage of remaining activity by using the high control (HC, median of fluorescence signal from wells containing MALT1 protein, substrate, and DMSO) and low control (LC, median of fluorescence signal from wells with substrate only) with the formula below: […]
IC50 and Hill coefficients were obtained using Graph Pad Prism (Graph Pad software, Inc, USA) with non-linear regression analysis.

IC50 | SMILES
100 to 1000 nM | CC1(C)C[C@@H](C(=O)Nc2cnc(OC(F)F)c(C#N)c2)c2cnc3cc(F)nn3c21 (single isomer, unassigned) [Example 83, N-(5-cyano-6-(difluoromethoxy)pyridin-3-yl)-2-fluoro-8,8-dimethyl-7,8-dihydro-6H-cyclopenta[e]pyrazolo[1,5-a]pyrimidine-6-carboxamide]
≥ 1000 nM | CC1(C)C[C@@H](C(=O)Nc2cnc(OC(F)F)c(C#N)c2)c2cnc3c(F)c(F)nn3c21 (single isomer, unassigned) [Example 90, N-(5-cyano-6-(difluoromethoxy)pyridin-3-yl)-2,3-difluoro-8,8-dimethyl-7,8-dihydro-6H-cyclopenta[e]pyrazolo[1,5-a]pyrimidine-6-carboxamide]
10 to 100 nM | CC1(C)C[C@H](C(=O)Nc2cc(C#N)c(OC(F)F)cn2)c2cnc3cc(F)nn3c21 (single isomer, unassigned) [Example 170]
≥ 1000 nM | N#Cc1cc(NC(=O)C2CC3(CCOCC3)c3c2cnc2cc(F)nn32)cnc1OC(F)F (single isomer, unassigned) [Example 147, N-(5-cyano-6-(difluoromethoxy)pyridin-3-yl)-2-fluoro-2′,3′,5′,6,6′,7-hexahydrospiro[cyclopenta[e]pyrazolo[1,5-a]pyrimidine-8,4′-pyran]-6-carboxamide]
≥ 1000 nM | CC1(C)OC(C(=O)Nc2cnc(-n3nccn3)c(Cl)c2)c2cnc3cc(Cl)nn3c21 (single isomer, unassigned) [Example 70, 2-chloro-N-(5-chloro-6-(2H-1,2,3-triazol-2-yl)pyridin-3-yl)-8,8-dimethyl-6,8-dihydrofuro[3,4-e]pyrazolo[1,5-a]pyrimidine-6-carboxamide]
100 to 1000 nM | CC1(C)C[C@@H](C(=O)Nc2cc(C(F)F)c(-c3ncco3)c(=O)[nH]2)c2cnc3cc(Cl)nn3c21 (single isomer, unassigned) [Example 57, 2-chloro-N-(4-(difluoromethyl)-5˜(oxazol-2-yl)-6-oxo-1,6-dihydropyridin-2-yl)-8,8-dimethyl-7,8-dihydro-6H-cyclopenta[e]pyrazolo[1,5-a]pyrimidine-6-carboxamide]
100 to 1000 nM | O=C(Nc1cnc([C@H](O)C(F)F)c(Cl)c1)[C@H]1CC2(CCC2)c2c1cnc1cc(F)nn21 (single isomer, unassigned) [Example 136, N-(5-chloro-6-(2,2-difluoro-1-hydroxyethyl)pyridin-3-yl)-2′-fluoro-6′,7′-dihydrospiro[cyclobutane-1,8′-cyclopenta[e]pyrazolo[1,5-a]pyrimidine]-6′-carboxamide]
10 to 100 nM | Cn1nnnc1-c1ncc(NC(=O)[C@@H]2CC(C)(C)c3c2cnc2cc(Cl)nn32)cc1Cl (single isomer, unassigned) [Example 144, 2-chloro-N-(5-chloro-6-(1-methyl-1H-tetrazol-5-yl)pyridin-3-yl)-8,8-dimethyl-7,8-dihydro-6H-cyclopenta[e]pyrazolo[1,5-a]pyrimidine-6-carboxamide]
≥ 1000 nM | Cc1cc(NC(=O)C2CC(C)(C)c3c2cnc2cc(F)nn32)cnc1N1CCC1 (stereo not drawn) [Example 179, N-(6-(azetidin-1-yl)-5-methylpyridin-3-yl)-2-fluoro-8,8-dimethyl-7,8-dihydro-6H-cyclopenta[e]pyrazolo[1,5-a]pyrimidine-6-carboxamide]
100 to 1000 nM | CC1(C)CC(C(=O)Nc2cnc(-n3cc(C4COC4)nn3)c(Cl)c2)c2cnc3cc(Cl)nn3c21 (stereo not drawn) [Example 119, 2-chloro-N-(5-chloro-6-(4-(oxetan-3-yl)-1H-1,2,3-triazol-1-yl)pyridin-3-yl)-8,8-dimethyl-7,8-dihydro-6H-cyclopenta[e]pyrazolo[1,5-a]pyrimidine-6-carboxamide]
100 to 1000 nM | CC1(C)CC(C(=O)Nc2cnc(-c3nnnn3C3COC3)c(Cl)c2)c2cnc3cc(Cl)nn3c21 (stereo not drawn) [Example 163, 2-chloro-N-(5-chloro-6-(1-(oxetan-3-yl)-1H-tetrazol-5-yl)pyridin-3-yl)-8,8-dimethyl-7,8-dihydro-6H-cyclopenta[e]pyrazolo[1,5-a]pyrimidine-6-carboxamide]
≥ 1000 nM | CC1(C)C[C@@H](C(=O)Nc2cc(N=S(C)(C)=O)nc(C(F)(F)F)c2)c2cnc3cc(F)nn3c21 (single isomer, unassigned) [Example 127, N-(2-((dimethyl(oxo)-λ^6-sulfaneylidene)amino)-6-(trifluoromethyl)pyridin-4-yl)-2-fluoro-8,8-dimethyl-7,8-dihydro-6H-cyclopenta[e]pyrazolo[1,5-a]pyrimidine-6-carboxamide]
100 to 1000 nM | O=C(Nc1cnc([C@@H](O)C(F)F)c(Cl)c1)[C@H]1CC2(CCC2)c2c1cnc1cc(F)nn21 (single isomer, unassigned) [Example 135, N-(5-chloro-6-(2,2-difluoro-1-hydroxyethyl)pyridin-3-yl)-2′-fluoro-6′,7′-dihydrospiro[cyclobutane-1,8′-cyclopenta[e]pyrazolo[1,5-a]pyrimidine]-6′-carboxamide]
100 to 1000 nM | CC1(C)C[C@@H](C(=O)Nc2cnc(-n3nccn3)c(C#N)c2)c2cnn3cc(C(F)F)nc3c21 (single isomer, unassigned) [Example 196, N-(5-cyano-6-(2H-1,2,3-triazol-2-yl)pyridin-3-yl)-2-(difluoromethyl)-9,9-dimethyl-8,9-dihydro-7H-cyclopenta[d]imidazo[1,2-b]pyridazine-7-carboxamide]
≥ 1000 nM | C[C@H](O)c1cnn(-c2ncc(NC(=O)[C@@H]3CC4(CCC4)c4c3cnc3cc(Cl)nn43)cc2Cl)n1 (single isomer, unassigned) [Example 159]
10 to 100 nM | Cc1cc(NC(=O)[C@@H]2CC(C)(C)c3c2cnc2cc(Cl)nn32)cnc1-n1nccn1 (single isomer, unassigned) [Example 181]
≥ 1000 nM | CC1(C)CC(C(=O)Nc2cnc(OC(F)F)c(C#N)n2)c2cnc3cc(F)nn3c21 (single isomer, unassigned) [Example 86, N-(6-cyano-5-(difluoromethoxy)pyrazin-2-yl)-2-fluoro-8,8-dimethyl-7,8-dihydro-6H-cyclopenta[e]pyrazolo[1,5-a]pyrimidine-6-carboxamide]
100 to 1000 nM | CC1(C)C[C@@H](C(=O)Nc2cnc(-n3nccn3)c(Cl)c2)c2cnc3c(F)c(F)nn3c21 (single isomer, unassigned) [Example 121, N-(5-chloro-6-(2H-1,2,3-triazol-2-yl)pyridin-3-yl)-2,3-difluoro-8,8-dimethyl-7,8-dihydro-6H-cyclopenta[e]pyrazolo[1,5-a]pyrimidine-6-carboxamide]
10 to 100 nM | CC1(C)CC(C(=O)Nc2cc(C(F)F)c(-n3nccn3)c(=O)[nH]2)c2cnc3cc(Cl)nn3c21 (stereo not drawn) [Example 61, 2-chloro-N-(4-(difluoromethyl)-6-oxo-5˜(2H-1,2,3-triazol-2-yl)-1,6-dihydropyridin-2-yl)-8,8-dimethyl-7,8-dihydro-6H-cyclopenta[e]pyrazolo[1,5-a]pyrimidine-6-carboxamide]
100 to 1000 nM | CC1(C)C[C@@H](C(=O)Nc2ccnc(C(F)(F)F)c2)c2cnn3cc(C(F)F)nc3c21 (single isomer, unassigned) [Example 200, 2-(difluoromethyl)-9,9-dimethyl-N-(2-(trifluoromethyl)pyridin-4-yl)-8,9-dihydro-7H-cyclopenta[d]imidazo[1,2-b]pyridazine-7-carboxamide]

SMILES | IC50
CC1(C)CC(O)(C(=O)Nc2cnc(-n3nccn3)c(Cl)c2)c2cnc3cc(Cl)nn3c21 (stereo not drawn) [Example 69, 2-chloro-N-(5-chloro-6-(2H-1,2,3-triazol-2-yl)pyridin-3-yl)-6-hydroxy-8,8-dimethyl-7,8-dihydro-6H-cyclopenta[e]pyrazolo[1,5-a]pyrimidine-6-carboxamide] | ≥ 1000 nM
